Measurements reported in PubChem BioAssay (NCI).
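Cells were grown in 96-well plates and exposed to each compound for 48 hours at five concentrations; endpoints were interpolated linearly between bracketing concentrations, or set to the highest concentration if not reached. The concentration for 50% growth inhibition is given as GI50. TGI is the concentration that stops growth completely.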

How the values were obtained:
Experiment in all cases: growth of human tumour cells (NCI), 48 h
SK-OV-3 ovarian = tested on: SK-OV-3 ovarian
HCT-116 colon = tested on: HCT-116 colon
OVCAR-4 ovarian = tested on: OVCAR-4 ovarian
UACC-257 melanoma = tested on: UACC-257 melanoma
SF-268 CNS = tested on: SF-268 CNS
IGROV1 ovarian = tested on: IGROV1 ovarian
HOP-62 NSCLC = tested on: HOP-62 NSCLC
NCI/ADR-RES ovarian = tested on: NCI/ADR-RES ovarian
K-562 leukemia = tested on: K-562 leukemia
COLO 205 colon = tested on: COLO 205 colon
HOP-92 NSCLC = tested on: HOP-92 NSCLC
UO-31 renal = tested on: UO-31 renal
A549 NSCLC = tested on: A549 NSCLC
SK-MEL-5 melanoma = tested on: SK-MEL-5 melanoma
SR leukemia = tested on: SR leukemia
NCI-H522 lung = tested on: NCI-H522 lung
SN12C renal = tested on: SN12C renal
T-47D breast = tested on: T-47D breast
OVCAR-8 ovarian = tested on: OVCAR-8 ovarian
PC-3 prostate = tested on: PC-3 prostate
SF-539 CNS = tested on: SF-539 CNS
786-0 renal = tested on: 786-0 renal
MOLT-4 leukemia = tested on: MOLT-4 leukemia
CAKI-1 renal = tested on: CAKI-1 renal
ACHN renal = tested on: ACHN renal
NCI-H23 lung = tested on: NCI-H23 lung
BT-549 breast = tested on: BT-549 breast
MALME-3M melanoma = tested on: MALME-3M melanoma
OVCAR-5 ovarian = tested on: OVCAR-5 ovarian
SF-295 CNS = tested on: SF-295 CNS
SK-MEL-28 melanoma = tested on: SK-MEL-28 melanoma
SNB-75 CNS = tested on: SNB-75 CNS
EKVX NSCLC = tested on: EKVX NSCLC
HL-60(TB) leukemia = tested on: HL-60(TB) leukemia
MDA-MB-435 = tested on: MDA-MB-435
MDA-MB-231 breast = tested on: MDA-MB-231 breast
DU-145 prostate = tested on: DU-145 prostate
A498 renal = tested on: A498 renal
NCI-H226 lung = tested on: NCI-H226 lung
HCT-15 colon = tested on: HCT-15 colon
SW-620 colon = tested on: SW-620 colon
RPMI-8226 leukemia = tested on: RPMI-8226 leukemia
NCI-H460 lung = tested on: NCI-H460 lung
CCRF-CEM leukemia = tested on: CCRF-CEM leukemia
SK-MEL-2 melanoma = tested on: SK-MEL-2 melanoma
M14 melanoma = tested on: M14 melanoma
HCC-2998 colon = tested on: HCC-2998 colon
HS 578T breast = tested on: HS 578T breast
MCF7 breast = tested on: MCF7 breast
RXF 393 renal = tested on: RXF 393 renal
KM12 colon = tested on: KM12 colon
HT29 colon = tested on: HT29 colon
U251 CNS = tested on: U251 CNS
SNB-19 CNS = tested on: SNB-19 CNS
UACC-62 melanoma = tested on: UACC-62 melanoma
TK-10 renal = tested on: TK-10 renal

`O=C(c1ccc(Oc2ccccc2)cc1Cl)c1c[nH]c2ncnc(N[C@@H]3CC[C@@H](CO)OC3)c12` gave a GI50 (SK-OV-3 ovarian) of 351 nM, a TGI (SK-OV-3 ovarian) of 2090 nM and a GI50 (HCT-116 colon) of 244 nM. For the same molecule, the TGI (HCT-116 colon) was 1420 nM, the GI50 (OVCAR-4 ovarian) was 5020 nM and the TGI (OVCAR-4 ovarian) was 23000 nM. For the same molecule, the GI50 (UACC-257 melanoma) was 38.9 nM, the TGI (UACC-257 melanoma) was 395 nM and the GI50 (SF-268 CNS) was 1410 nM. It also gave a TGI (SF-268 CNS) of 16300 nM, a GI50 (IGROV1 ovarian) of 84.2 nM and a TGI (IGROV1 ovarian) of 1960 nM. For the same molecule, the GI50 (HOP-62 NSCLC) was 302 nM, the TGI (HOP-62 NSCLC) was 11000 nM and the GI50 (NCI/ADR-RES ovarian) was 2300 nM. The TGI (NCI/ADR-RES ovarian) was 10700 nM, the GI50 (K-562 leukemia) was 432 nM and the TGI (K-562 leukemia) was over 36300 nM. It also gave a GI50 (COLO 205 colon) of 31.1 nM, a TGI (COLO 205 colon) of 351 nM and a GI50 (HOP-92 NSCLC) of 74.5 nM. For the same molecule, the TGI (HOP-92 NSCLC) was 488 nM, the GI50 (UO-31 renal) was 479 nM and the TGI (UO-31 renal) was 5560 nM. It also gave a GI50 (A549 NSCLC) of 724 nM, a TGI (A549 NSCLC) of 9920 nM and a GI50 (SK-MEL-5 melanoma) of 771 nM. It also gave a TGI (SK-MEL-5 melanoma) of 3560 nM, a GI50 (SR leukemia) of 2630 nM and a TGI (SR leukemia) of 19600 nM. It also gave a GI50 (NCI-H522 lung) of 437 nM, a TGI (NCI-H522 lung) of 5090 nM and a GI50 (SN12C renal) of 413 nM. The TGI (SN12C renal) was 11400 nM, the GI50 (T-47D breast) was 908 nM and the TGI (T-47D breast) was 6830 nM. It also gave a GI50 (OVCAR-8 ovarian) of 1330 nM, a TGI (OVCAR-8 ovarian) of 11200 nM and a GI50 (PC-3 prostate) of 3160 nM. For the same molecule, the TGI (PC-3 prostate) was 13500 nM, the GI50 (SF-539 CNS) was 1360 nM and the TGI (SF-539 CNS) was 4850 nM. The GI50 (786-0 renal) was 1580 nM, the TGI (786-0 renal) was 9350 nM and the GI50 (MOLT-4 leukemia) was 1510 nM. The TGI (MOLT-4 leukemia) was 8990 nM, the GI50 (CAKI-1 renal) was 398 nM and the TGI (CAKI-1 renal) was 5360 nM. The GI50 (ACHN renal) was 260 nM, the TGI (ACHN renal) was 10500 nM and the GI50 (NCI-H23 lung) was 703 nM. It also gave a TGI (NCI-H23 lung) of 13700 nM, a GI50 (BT-549 breast) of 1660 nM and a TGI (BT-549 breast) of 4170 nM. The GI50 (MALME-3M melanoma) was 16.1 nM, the TGI (MALME-3M melanoma) was 74.5 nM and the GI50 (OVCAR-5 ovarian) was 255 nM. For the same molecule, the TGI (OVCAR-5 ovarian) was 2750 nM, the GI50 (SF-295 CNS) was 2450 nM and the TGI (SF-295 CNS) was 15300 nM. It also gave a GI50 (SK-MEL-28 melanoma) of 35 nM, a TGI (SK-MEL-28 melanoma) of 465 nM and a GI50 (SNB-75 CNS) of 1110 nM. It also gave a TGI (SNB-75 CNS) of 3270 nM, a GI50 (EKVX NSCLC) of 641 nM and a TGI (EKVX NSCLC) of 9420 nM. It also gave a GI50 (HL-60(TB) leukemia) of 200 nM, a TGI (HL-60(TB) leukemia) of 1970 nM and a GI50 (MDA-MB-435) of 109 nM. The TGI (MDA-MB-435) was 10800 nM, the GI50 (MDA-MB-231 breast) was 320 nM and the TGI (MDA-MB-231 breast) was 1740 nM. For the same molecule, the GI50 (DU-145 prostate) was 688 nM, the TGI (DU-145 prostate) was 6960 nM and the GI50 (A498 renal) was 295 nM. For the same molecule, the TGI (A498 renal) was 1280 nM, the GI50 (NCI-H226 lung) was 1470 nM and the TGI (NCI-H226 lung) was 23600 nM. The GI50 (HCT-15 colon) was 885 nM, the TGI (HCT-15 colon) was 10800 nM and the GI50 (SW-620 colon) was 397 nM. For the same molecule, the TGI (SW-620 colon) was 11600 nM, the GI50 (RPMI-8226 leukemia) was 1760 nM and the TGI (RPMI-8226 leukemia) was 9530 nM. It also gave a GI50 (NCI-H460 lung) of 2510 nM, a TGI (NCI-H460 lung) of 10700 nM and a GI50 (CCRF-CEM leukemia) of 3210 nM. It also gave a TGI (CCRF-CEM leukemia) of 20900 nM, a GI50 (SK-MEL-2 melanoma) of 229 nM and a TGI (SK-MEL-2 melanoma) of 876 nM. For the same molecule, the GI50 (M14 melanoma) was 21.3 nM, the TGI (M14 melanoma) was 222 nM and the GI50 (HCC-2998 colon) was 199 nM. For the same molecule, the TGI (HCC-2998 colon) was 5560 nM, the GI50 (HS 578T breast) was 1590 nM and the TGI (HS 578T breast) was 5010 nM. The GI50 (MCF7 breast) was 1470 nM, the TGI (MCF7 breast) was 13000 nM and the GI50 (RXF 393 renal) was 748 nM. The TGI (RXF 393 renal) was 2770 nM, the GI50 (KM12 colon) was 37.7 nM and the TGI (KM12 colon) was 2610 nM. For the same molecule, the GI50 (HT29 colon) was 43.4 nM, the TGI (HT29 colon) was 1470 nM and the GI50 (U251 CNS) was 1200 nM. For the same molecule, the TGI (U251 CNS) was 14100 nM, the GI50 (SNB-19 CNS) was 1810 nM and the TGI (SNB-19 CNS) was 15300 nM. It also gave a GI50 (UACC-62 melanoma) of 20.9 nM, a TGI (UACC-62 melanoma) of 173 nM and a GI50 (TK-10 renal) of 231 nM. The TGI (TK-10 renal) was 1670 nM.
